Reference: patent US11014955B2, “Cyclic peroxides as prodrugs for selective delivery of agents” (THE REGENTS OF THE UNIVERSITY OF CALIFORNIA, priority 2014, dated 2021)
Where “and” joins values, the source holds several entries; their conditions need not be identical. Identical values can stand only once. Counter-ions that a name gives are not always drawn. Like-named read-outs stand apart in the source and are kept apart here.

How the values were obtained:
[1] = system: P. falc; experiment: Biological activity EC50, P. falc (strain not given); format: cell-based; conditions: Plasmodium falciparum; Target (Cell Line): P. falc
[2] = system: P. falc W2; experiment: Biological activity EC50, P. falc W2; format: cell-based; conditions: Plasmodium falciparum
[3] = system: P. falc 3D7; experiment: Biological activity EC50, P. falc 3D7; format: cell-based; conditions: Plasmodium falciparum; Target (Cell Line): P. falc 3D7
[4] = system: P. falc DD2; experiment: Biological activity EC50, P. falc DD2; format: cell-based; conditions: Plasmodium falciparum; Target (Cell Line): P. falc DD2
[5] = system: P. falc HB3; experiment: Biological activity EC50, P. falc HB3; format: cell-based; conditions: Plasmodium falciparum; Target (Cell Line): P. falc HB3
[6] = system: P. falc D10; experiment: Biological activity EC50, P. falc D10; format: cell-based, P. falciparum; conditions: Target (Cell Line): P. falc D10
[7] = system: HeLa; experiment: Biological activity EC50, HeLa; format: cell-based; conditions: Homo sapiens; Target (Cell Line): HeLa
[8] = system: MCF-7; experiment: Biological activity EC50, MCF-7; format: cell-based; conditions: Homo sapiens, MCF7; Target (Cell Line): MCF-7
[9] = system: PC-3; experiment: Biological activity EC50, PC-3; format: cell-based; conditions: Homo sapiens; Target (Cell Line): PC-3
[10] = system: MB-MDA-231; experiment: Biological activity EC50, MB-MDA-231; format: cell-based
[11] = system: U87MG; experiment: Biological activity EC50, U87MG; format: cell-based; conditions: Homo sapiens, U-87 MG; Target (Cell Line): U87MG
[12] = system: IMR90; experiment: Biological activity EC50, IMR90; format: cell-based; conditions: Homo sapiens, IMR-90; Target (Cell Line): IMR90
[13] = Target (Cell Line): P. falc W2, read-out: Activity EC50
[14] = Target (Cell Line): MB-MDA-231, read-out: Activity EC50

## O=C(Nc1cc(Cl)ccc1Cl)O[C@@H]1C[C@H](OC(=O)Nc2cc(Cl)ccc2Cl)CC2(C1)OOC1(O2)C2CC3CC(C2)CC1C3 (relative stereo) [Example 4, (3″R*,5″S*)-5″-{[(2,5-dichlorophenyl)carbamoyl]oxy}dispiro[adamantane-2,2′-[1,3,5]trioxolane-4′,1″-cyclohexane]-3″-yl N-(2,5-dichlorophenyl)carbamate]
[1]
  EC50: 147 nM

## O=C1CCCC2(C1)OOC1(O2)C2CC3CC(C2)CC1C3 (stereo not drawn) [Cmpd 2b, dispiro[adamantane-2,2′-[1,3,5]trioxolane-4′,1″-cyclohexane]-3″-one]
[1]
  EC50: 408 nM

## O=C(Nc1cc(Cl)ccc1Cl)OC1CCCC2(C1)OOC1(O2)C2CC3CC(C2)CC1C3 (stereo not drawn) [Example 1, dispiro[adamantane-2,2′-[1,3,5]trioxolane-4′,1″-cyclohexane]-3″-yl N-(2,5-dichlorophenyl)carbamate]
[1]
  EC50: 14.3 nM

## C=CC1(OC(=O)Nc2cc(Cl)ccc2Cl)CCCC2(C1)OOC1(O2)C2CC3CC(C2)CC1C3 (stereo not drawn) [Example 2, 3″-ethenyldispiro[adamantane-2,2′-[1,3,5]trioxolane-4′,1′-cyclohexane]-3″-yl N-(2,5-dichlorophenyl)carbamate]
[1]
  EC50: 10.7 nM

## CC(C)(C)[C@H]1C[C@H](OC(=O)Nc2cc(Cl)ccc2Cl)CC2(C1)OOC1(O2)C2CC3CC(C2)CC1C3 (stereo partly drawn) [Example 3, (3″S,5″S)-5″-tert-butyldispiro[adamantane-2,2′-trioxolane-4′,1″-cyclohexane]-3″-yl N-(2,5-dichlorophenyl)carbamate]
[1]
  EC50: 65.7 nM

## CCNC(=O)OC1CCCC2(C1)OOC1(O2)C2CC3CC(C2)CC1C3 (stereo not drawn) [Example 5, dispiro[adamantane-2,2′-[1,3,5]trioxolane-4′,1″-cyclohexane]-3″-yl N-ethylcarbamate]
[2]; [13]
  EC50: 5.9 nM

## O=C(OC1CCCC2(C1)OOC1(O2)C2CC3CC(C2)CC1C3)N1CCCCC1[C@@H](O)c1cc(C(F)(F)F)nc2c(C(F)(F)F)cccc12 (stereo partly drawn) [Example 6, dispiro[adamantane-2,2′-[1,3,5]trioxolane-4′,1″-cyclohexane]-3″-v 2-[(S)-[2,8-bis(trifluoromethyl)quinolin-4-yl](hydroxy)methyl]piperidine-1-carboxylate]
[2]; [13]
  EC50: 17.1 nM

## CCCCN(CCCC)CCC(OC(=O)OC1CCCC2(C1)OOC1(O2)C2CC3CC(C2)CC1C3)c1cc2c(Cl)cc(Cl)cc2c2cc(C(F)(F)F)ccc12 (stereo not drawn) [Example 8, 3-(dibutylamino)-1-[1,3-dichloro-6-(trifluoromethyl)phenanthren-9-yl]propyl dispiro[adamantane-2,2′-[1,3,5]trioxolane-4′,1″-cyclohexane]-3″-yl carbonate]
[3]
  EC50: 21 nM
[4]
  EC50: 15 nM
[5]
  EC50: 8 nM

## CCCCC(C(=O)COc1c(F)c(F)cc(F)c1F)n1cc(C2(NC(=O)OC3CCCC4(C3)OOC3(O4)C4CC5CC(C4)CC3C5)CCCCC2)nn1 (stereo not drawn) [Example 9, dispiro[adamantane-2,2′-[1,3,5]trioxolane-4′,1″-cyclohexane]-3″-yl N-(1-{1-[2-oxo-1-(2,3,5,6-tetrafluorophenoxy)heptan-3-yl]-1H-1,2,3-triazol-4-yl}cyclohexyl)carbamate]
[6]; Plasmodium falciparum
  EC50: 29 nM
[6]
  EC50: 15.7 nM and 23.3 nM

## O=C1C(O)=C(C2CCC3(CC2)OOC2(O3)C3CC4CC(C3)CC2C4)C(=O)c2ccccc21 (stereo not drawn) [Example 10, 2-{dispiro[adamantane-2,2′-[1,3,5]trioxolane-4′,1″-cyclohexane]-4″-yl}-3-hydroxy-1,4-dihydronaphthalene-1,4-dione]
[3]
  EC50: 188 nM
[4]
  EC50: 188 nM
[5]
  EC50: 94 nM

## COc1ccc(-c2cnnn2-c2cc(OC)c(OC)c(OC)c2)cc1NC(=O)OC1CCCC2(C1)OOC1(O2)C2CC3CC(C2)CC1C3 (stereo not drawn) [Example 11, dispiro[adamantane-2,2′-[1,3,5]trioxolane-4′,1″-cyclohexane]-3″-yl N-{2-methoxy-5-[1-(3,4,5-trimethoxyphenyl)-1H-1,2,3-triazol-5-yl]phenyl}carbamate]
[7]
  EC50: 57 nM
[8]
  EC50: 24 nM
[2]; [13]
  EC50: 34 nM
[9]
  EC50: 26 nM
[10]; [14]
  EC50: 42 nM

## COc1ccc(-c2cnnn2-c2cc(OC)c(OC)c(OC)c2)cc1NC(=O)OC1CCCC2(C1)OCC1(O2)C2CC3CC(C2)CC1C3 (stereo not drawn) [Example 12, dispiro[adamantane-2,4′-[1,3]dioxolane-2′,1″-cyclohexane]-3″-yl N-{2-methoxy-S-[1-(3,4,5-trimethoxyphenyl)-1H-1,2,3-triazol-5-yl]phenyl}carbamate]
[7]
  EC50: > 1000 nM
[8]
  EC50: > 1000 nM
[2]; [13]
  EC50: > 1000 nM
[9]
  EC50: > 1000 nM

## COc1ccc(-c2cnnn2-c2cc(OC)c(OC)c(OC)c2)cc1NC(=O)OC1CCCC2(COC3(O2)C2CC4CC(C2)CC3C4)C1 (stereo not drawn) [Example 13, dispiro[adamantane-2,2′-[1,3]dioxolane-4′,1″-cyclohexane]-3″-yl N-{2-methoxy-5-[1-(3,4,5-trimethoxyphenyl)-1H-1,2,3-triazol-5-yl]phenyl}carbamate]
[7]
  EC50: > 1000 nM
[8]
  EC50: > 1000 nM
[2]; [13]
  EC50: > 1000 nM
[9]
  EC50: > 1000 nM
[11]
  EC50: > 1000 nM
[10]; [14]
  EC50: > 1000 nM

## COc1ccc(/C=C/C(=O)N2CC(CCl)c3c2cc(NC(=O)OC2CCCC4(C2)OOC2(O4)C4CC5CC(C4)CC2C5)c2ccccc32)cc1 (stereo not drawn) [Example 14, dispiro[adamantane-2,2′-[1,3,5]trioxolane-4′,1″-cyclohexane]-3″-yl N-[1-(chloromethyl)-3-[(2E)-3-(4-methoxyphenyl)prop-2-enoyl]-1H,2H,3H-benzo[e]indol-5-yl]carbamate]
[7]
  EC50: 105 nM
[12]
  EC50: 100 nM
[2]; [13]
  EC50: 2.8 nM
[11]
  EC50: 40 nM

## COc1ccc(/C=C/C(=O)N2CC(CCl)c3c2cc(NC(=O)OC2CCCC4(C2)OCC2(O4)C4CC5CC(C4)CC2C5)c2ccccc32)cc1 (stereo not drawn) [Example 15, dispiro[adamantane-2,4′-[1,3]dioxolane-2′,1″-cyclohexane]-3″-yl N-[1-(chloromethyl)-3-[(2E)-3-(4-methoxyphenyl)prop-2-enoyl]-1H,2H,3H-benzo[e]indol-5-yl]carbamate]
[7]
  EC50: > 1000 nM
[12]
  EC50: > 1000 nM
[2]; [13]
  EC50: 41 nM

## O=C(Oc1ccc2ccc(=O)oc2c1)OC1CCCC2(C1)OOC1(O2)C2CC3CC(C2)CC1C3 (stereo not drawn) [Example 17, dispiro[adamantane-2,2′-[1,3,5]trioxolane-4′,1″-cyclohexane]-3″-yl 2-oxo-2H-chromen-7-yl carbonate]
[6]; Plasmodium falciparum
  EC50: 25.3 nM

## CN(C)c1cccc2c(S(=O)(=O)NC34CC5CC(C3)C3(OOC6(CCCCC6)O3)C(C5)C4)cccc12 (stereo not drawn) [Example 20, 5-(dimethylamino)-N-{dispiro[adamantane-2,2′-trioxolane-4′,1″-cyclohexane]-7-yl}naphthalene-1-sulfonamide]
[4]
  EC50: 11.4 nM

## CN(C)c1cccc2c(S(=O)(=O)N3CCC4(CC3)OOC3(O4)C4CC5CC(C4)CC3C5)cccc12 (stereo not drawn) [Example 21, 5-({dispiro[adamantane-2,2′-[1,3,5]trioxolane-4′,4″-piperidine]-1″-yl}sulfonyl)-N,N-dimethylnaphthalen-1-amine]
[4]
  EC50: 54.2 nM

## COc1ccc(C[C@H](NC(=O)OC2CCCC3(C2)OOC2(O3)C3CC4CC(C3)CC2C4)C(=O)N[C@H]2[C@@H](O)[C@H](n3cnc4c(N(C)C)ncnc43)O[C@@H]2CO)cc1 (stereo partly drawn) [Example 22, dispiro[adamantane-2,2′-[1,3,5]trioxolane-4′,1″-cyclohexane]-3″-yl N-[(1S)-1-{[(2S,3S,4R,5R)-5-[6-(dimethylamino)-9H-purin-9-yl]-4-hydroxy-2-(hydroxymethyl)oxolan-3-yl]carbamoyl}-2-(4-methoxyphenyl)ethyl]carbamate]
[7]
  EC50: 3210 nM
[4]
  EC50: 12.7 nM
[12]
  EC50: 6980 nM
[10]; [14]
  EC50: 5270 nM

## CC(C)(N)CNC(=O)OC1CCCC2(C1)OOC1(O2)C2CC3CC(C2)CC1C3 (stereo not drawn) [Example 23, Dispiro[adamantane-2,2′-[1,3,5]trioxolane-4′,1″-cyclohexane]-3″-yl N-(2-amino-2-methylpropyl)carbamate]
[2]; [13]
  EC50: 5 nM

## COC1CCC[C@]2(C1)OOC1(O2)C2CC3CC(C2)CC1C3 (stereo partly drawn) [Example 25]
[2]; [13]
  EC50: 27 nM

## CCCCC(C(=O)COc1c(F)c(F)cc(F)c1F)n1cc(C2(N)CCCCC2)nn1 (stereo not drawn) [Literature Compound A, reference compound]
[6]; Plasmodium falciparum
  EC50: 70 nM

## COc1ccc(-c2cnnn2-c2cc(OC)c(OC)c(OC)c2)cc1N [Literature Compound B, reference compound]
[7]
  EC50: 11 nM
[8]
  EC50: 10 nM
[2]; read-out: Activity EC50 (nM)
  EC50: > 1000 nM
[9]
  EC50: 9 nM
[10]; read-out: Activity EC50 (nM)
  EC50: 10 nM

## COc1ccc(/C=C/C(=O)N2CC(CCl)c3c2cc(N)c2ccccc32)cc1 (stereo not drawn) [Literature Compound C, reference compound]
[7]
  EC50: 11 nM
[12]
  EC50: 3 nM
[2]; read-out: Activity EC50 (nM)
  EC50: 0.45 nM
[11]
  EC50: 5 nM

## COc1ccc(C[C@H](N)C(=O)N[C@H]2[C@@H](O)[C@H](n3cnc4c(N(C)C)ncnc43)O[C@@H]2CO)cc1 [Puromycin dihydrochloride, reference compound]
[7]
  EC50: 783 nM
[4]
  EC50: 25.3 nM
[12]
  EC50: 1700 nM
[10]; [14]
  EC50: 569 nM
